Experimental data reported in paper PMC6351529, “Novel carboxylate-based glycolipids: TLR4 antagonism, MD-2 binding and self-assembly properties” (Scientific Reports, 2019).

Tests used:
[1] = molecular target: T1, human TLR4 (Homo sapiens, UniProt O00206+Q9Y6Y9); assay: Inhibition of LPS-stimulated TLR4 activation in HEK293-Blue hTLR4 cells (SEAP reporter); assay type: cell-based; conditions: LPS 100 ng/mL, 15 min pre-incubation, 16 h, serum-free DMEM
T1 construct: host or cells: HEK-Blue hTLR4 (HEK293)
T1 sequence (O00206 24-839, one chain of several): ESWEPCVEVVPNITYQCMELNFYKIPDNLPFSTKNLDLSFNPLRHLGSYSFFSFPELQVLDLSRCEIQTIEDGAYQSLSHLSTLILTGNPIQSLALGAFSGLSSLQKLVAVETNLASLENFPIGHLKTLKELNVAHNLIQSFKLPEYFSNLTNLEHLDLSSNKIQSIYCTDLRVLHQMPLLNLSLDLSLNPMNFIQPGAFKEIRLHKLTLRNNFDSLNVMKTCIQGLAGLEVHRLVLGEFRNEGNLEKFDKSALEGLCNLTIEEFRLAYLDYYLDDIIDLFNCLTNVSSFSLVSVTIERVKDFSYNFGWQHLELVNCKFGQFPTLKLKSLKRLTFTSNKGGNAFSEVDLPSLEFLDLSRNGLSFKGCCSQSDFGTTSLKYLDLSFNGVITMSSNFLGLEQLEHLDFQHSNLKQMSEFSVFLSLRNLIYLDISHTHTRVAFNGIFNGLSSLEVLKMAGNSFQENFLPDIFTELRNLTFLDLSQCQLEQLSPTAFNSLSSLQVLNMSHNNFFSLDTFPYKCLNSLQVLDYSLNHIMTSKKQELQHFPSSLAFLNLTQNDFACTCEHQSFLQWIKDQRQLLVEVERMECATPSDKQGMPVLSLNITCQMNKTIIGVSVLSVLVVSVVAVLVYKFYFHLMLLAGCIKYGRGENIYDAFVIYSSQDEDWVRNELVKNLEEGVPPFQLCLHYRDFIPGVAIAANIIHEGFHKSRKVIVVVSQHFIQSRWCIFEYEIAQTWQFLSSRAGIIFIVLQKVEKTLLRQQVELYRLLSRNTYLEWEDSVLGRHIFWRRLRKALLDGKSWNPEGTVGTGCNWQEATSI
From the text: Synthetic monosaccharides were screened for their capacity to activate or inhibit LPS-stimulated TLR4 activation in HEK293-Blue hTLR4 cells. HEK293-Blue hTLR4 cells are HEK cells transfected in order to express the human receptors involved in LPS detection process (TLR4, MD-2 and membrane-bound CD14) and an inducible SEAP (secreted embryonic alkaline phosphatase) reporter gene placed under the control of NF-kB and AP-1-transcription factors. Activation of the MyD88-dependent TLR4 pathway promotes the production and secretion of SEAP in the cell culture media, which can be easily quantified.
SEAP levels in cell culture media were quantified after 16 hours as indicator of TLR4 activation. Data were normalized to stimulation with LPS alone and fitted to a sigmoidal 4 parameter logistic equation to obtain dose-effect curves (left panel). […] Briefly, cells were cultured in DMEM high glucose medium supplemented with 10% fetal bovine serum (FBS), 2 mM glutamine, antibiotics and 1 × HEK-Blue Selection (InvivoGen). Cells were detached using a cell scraper, counted and seeded in a 96-well multiwell plate at a density of 4 × 10^4 cells per well. […] For the antagonism evaluation, cells were stimulated with LPS (100 ng/mL, E. coli O55:B5, Sigma-Aldrich) after compounds pre-treatment and incubated for 16 hours as above. The SEAP-containing supernatants were collected and incubated with para-nitrophenyl phosphate (pNPP) for 2−4 h in the dark at room temperature. The wells optical density was determined using a microplate reader (labtech LT-4000) set to 405 nm.

[2] = molecular target: T2, human MD-2 (hMD-2) (Homo sapiens, UniProt Q9Y6Y9); assay: Surface plasmon resonance (SPR) on immobilized hMD-2; conditions: 1:1 Langmuir binding model, 25 °C
T2 construct: made in house; host or cells: Pichia pastoris
T2 sequence (Q9Y6Y9 19-160): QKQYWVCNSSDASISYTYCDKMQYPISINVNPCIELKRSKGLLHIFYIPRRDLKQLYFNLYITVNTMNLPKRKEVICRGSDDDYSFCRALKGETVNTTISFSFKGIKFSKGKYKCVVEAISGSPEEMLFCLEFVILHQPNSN
Protocol: SPR experimental curve optimal fitting was obtained by assuming 1:1 ligand/MD-2 binding stoichiometry.
The binding affinity of the compounds to recombinant hMD-2 was determined using a Biacore X100 with an NTA sensor chip (Biacore, GE Healthcare, Uppsala, Sweden). Briefly, 0.5 μM hMD-2 (in 50 mM TRIS, 150 mM NaCl, 0.5% Tween 20, pH 7.5) was immobilized onto the sensor chip previously activated with 1-min. pulse of 10 mM NiSO4. First flow cell was used as a reference surface to control non-specific binding. Both flow cells were injected with the analyte (in PBS, 5% DMSO, 5% EtOH, pH 7.5) at a flow rate of 10 μL/min at 25 °C in increasing concentrations. The data were analyzed with Biacore Evaluation software. KD values were calculated by global fitting of the equilibrium binding responses from various concentrations of analytes using a 1:1 Langmuir binding model.

[3] = tested on: C57BL/6 mice; assay: LPS-induced serum TNFα in mice, compound i.p.; assay type: in vivo, mouse; conditions: 200 µg i.p., LPS 30 min later, serum after 4 h
Protocol: To further investigate whether carboxylate-based lipid A mimetics are able to inhibit LPS-induced signaling in vivo, we injected C57BL/6 mice i.p. with 200 µg of compound FP13 followed by the LPS injection 30 min later. […] The reason for this was unclear and we hypothesized poor distribution and absorption of the compound upon i.p. injection.
C57BL/6 mice were injected i.p. with 200 µg FP13. 30 min later, the mice were i.p. injected with 150 µg of Salmonella enterica LPS, or vehicle and PBS as controls. Mice were sacrificed 4 h later and serum was collected. Serum TNF concentration was determined by Luminex-based Bio-Plex Multiplex system. Error bars represent the standard deviation of the mean.

[4] = tested on: TLR4 signaling in RAW 264.7-Blue cells; assay: LPS-induced TLR4 signaling in RAW 264.7-Blue cells (SEAP reporter, QUANTI-Blue); assay type: cell-based, murine
Protocol: To characterize the effect of synthetic compounds FP13-17 on cells naturally expressing TLR4, we used the murine macrophage RAW 264.7-Blue cell line, which are murine RAW 264.7 macrophages with chromosomal integration of SEAP reporter construct described in the previous section.
Figure 8 Inhibition of LPS-induced TLR4 signaling in RAW 264.7-Blue cells. […] SEAP reporter levels in the cell supernatant were determined by QuantiBlue Assay 24 h later. Error bars represent the standard deviation of the mean of technical triplicates. The graph is representative of at least three independent experiments.
Murine RAW 264.7-Blue cells (Invivogen) derived from the murine RAW 264.7 macrophages and stably expressing an NF-κB-inducible secreted alkaline phosphatase (SEAP) reporter gene were cultured in Dulbecco’s modified Eagle’s medium (DMEM), supplemented with 10% Fetal bovine serum (FBS), L-Glutamine (2 mM) and sodium pyruvate (0.4 mM), in the presence of selection antibiotic Zeocin (200 μg/mL). E. coli O111:B4 LPS was purchased from Invivogen. Bovine serum albumin (BSA) was purchased from Sigma-Aldrich. Compounds FP13-17 were reconstituted in DMSO/ethanol to provide a 10 mM stock solution. […] C57BL6/J mice were obtained from Janvier. […]
[…] 24 h later cell supernatants were analyzed for SEAP production by the QUANTI-Blue Assay (Invivogen).

[5] = tested on: C57BL/6 mice; assay: LPS-induced lung neutrophilia in mice, intratracheal administration; assay type: in vivo, mouse; conditions: 45 µg i.t. with 1 µg LPS, BAL after 16 h
Protocol: We therefore also explored the antagonistic capacity of FP13 in a different in vivo model, where LPS and FP13 were both administered locally in the lungs. Intratracheal (i.t.) instillation of LPS is known to cause an acute inflammatory response in mice, characterized by transient infiltration of neutrophils into the airways[57],[58].
PBS and vehicle were administered as controls. Mice were sacrificed 16 h later and neutrophilia in the BAL fluid was measured by flow cytometry. Error bars represent the standard deviation of the mean.

[6] = design: method as in PMID 24339336; conditions: cited from earlier work

SMILES | IC50 [1] | Kd [2] | effect on LPS-induced serum TNFα levels [3] | antagonistic activity in presence of serum ([4]; DMEM supplemented with 10% FBS) | antagonistic activity in presence of BSA ([4]; serum-free with 4 or 20 mg/mL BSA) | effect on LPS-induced neutrophil infiltration into the airways [5] | CMC [6]
CCCCC/C=C\C/C=C\CCCCCCCC(=O)N[C@H]1[C@H](OC(=O)CCC(=O)O)O[C@H](CO)[C@@H](OC(=O)CCC(=O)O)[C@@H]1OC(=O)CCCCCCC/C=C\C/C=C\CCCCC [FP14] | 4.35 µM | 35 µM |  |  |  |  | 
CCCCCCCC/C=C\CCCCCCCC(=O)N[C@H]1[C@H](OC(=O)CCC(=O)O)O[C@H](CO)[C@@H](OC(=O)CCC(=O)O)[C@@H]1OC(=O)CCCCCCC/C=C\CCCCCCCC [FP13] | 5.91 µM | 9 µM | did not affect | completely neutralized | strongly decreased | failed to suppress | 
CCCCCCCCCCCCCC(=O)N[C@H]1[C@@H](OP(=O)(O)O)O[C@H](CO)[C@@H](OP(=O)(O)O)[C@@H]1OC(=O)CCCCCCCCCCCCC [FP7] |  |  |  |  |  |  | about 9 µM

Continued, in another order:

IC50 [1] | Kd [2] | SMILES | effect on LPS-induced serum TNFα levels [3] | antagonistic activity in presence of serum ([4]; DMEM supplemented with 10% FBS) | antagonistic activity in presence of BSA ([4]; serum-free with 4 or 20 mg/mL BSA) | effect on LPS-induced neutrophil infiltration into the airways [5] | CMC [6]
3.5 µM | 14 µM | CCCCCCCC/C=C\CCCCCCCC(=O)N[C@H]1[C@H](OC(=O)CCC(=O)O)O[C@H](CO)[C@@H](OC(=O)CCC(=O)O)[C@@H]1OC(=O)CCCCCCCCCCCCC [FP15] |  |  |  |  | 
6.61 µM | 21 µM | CCCCC/C=C\C/C=C\CCCCCCCC(=O)N[C@H]1[C@H](OC(=O)CCC(=O)O)O[C@H](CO)[C@@H](OC(=O)CCC(=O)O)[C@@H]1OC(=O)CCCCCCCCCCCCC [FP16] |  |  |  |  | 
2.7 µM | 12 µM | CCCCCCCCCCCCCC(=O)N[C@H]1[C@H](OC(=O)CCC(=O)O)O[C@H](CO)[C@@H](OC(=O)CCC(=O)O)[C@@H]1OC(=O)CCCCCCCCCCCCC [FP17] |  |  |  |  | 
